The target in the assay is recombinant eIF4E (Homo sapiens (Human), UniProt P06730). Description: Fluorescence polarization competition assay for eIF4E binding potency. An outline of the steps: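 Competitive displacement format: compounds compete with a fluorescent m7GDP tracer (20 nM) for 75 nM recombinant eIF4E. Incubation is 30 min at room temperature, protected from light, with 1% DMSO. Polarization read gives IC50 over eight 3-fold concentrations.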
A general note: In fluorescence polarisation assays a small probe gives low polarisation when free and higher when bound to something large.

[1] abbreviates: fluorescence polarization competition, 75 nM recombinant eIF4E, 20 nM EDA-m7GDP-ATTO-550, IC50 class, read-out: elF4E FP.
[2] abbreviates: inhibition of eIF4E/EDA-m7GDP-ATTO-550 binding by 50%, Table 4B calculated values, read-out: IC50.
Where [3] appears, read: inhibition of eIF4E/EDA-m7GDP-ATTO-550 binding, calculated IC50 values, Table 4B, read-out: IC50.

Where two headings read alike, the source gives them in different places.

Chain of recombinant eIF4E (P06730 whole entry): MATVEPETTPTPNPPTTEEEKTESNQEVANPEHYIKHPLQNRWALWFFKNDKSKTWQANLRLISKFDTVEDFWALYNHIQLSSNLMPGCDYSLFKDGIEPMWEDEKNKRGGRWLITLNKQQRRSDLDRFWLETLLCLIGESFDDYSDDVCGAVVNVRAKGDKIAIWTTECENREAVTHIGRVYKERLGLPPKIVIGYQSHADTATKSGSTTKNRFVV

Take `Cc1nc2cc(C(F)(F)F)c(N3CCN(C)CC3)nc2c(=O)n1CC#Cc1ccc(Cl)cc1-c1ccnc2c(C(=O)O)csc12` [compound 682]: the IC50 is under 50 nM under setting [1] and 6.21 nM under setting [2]. Consider `Cc1cc2cc(C(F)(F)F)cc(C#N)c2c(O)c1CCOc1ccc(Cl)cc1-c1ccnc2c(C(=O)O)csc12` [compound 1976], for which the IC50 under setting [3] is 1850 nM. The same measure, in the same setting: the result for `Cc1nc2cc(C(F)(F)F)c(CCN3CC(F)(F)C3)c(C#N)c2c(=O)n1CCOc1ccc(Cl)cc1-c1ccnc2c(C(=O)O)csc12` [compound 1287] reads 42.4 nM; that for `N#Cc1cc(C(F)(F)F)cc2c(Cl)c(Cl)n(CCOc3ccc(Cl)cc3-c3ccnc4c(C(=O)O)csc34)c(=O)c12` [compound 1970], 67.2 nM. On to `Cc1cccc(-c2nc(C)c3nc(C)n(CCOc4ccc(Cl)cc4-c4cc(C)nc5c(C(=O)O)csc45)c(=O)c3c2C#N)c1` [compound 478], for which, under setting [1], the IC50 was under 50 nM. Turning to `Cc1nc2cc(C(F)(F)F)c(CCN(C)C)c(C#N)c2c(=O)n1CC#Cc1ccc(Cl)cc1-c1ccnc2c(C(=O)O)csc12` [compound 1298], under setting [3], the IC50 is 38.3 nM.

On to `Cc1cc(-c2cc(Cl)ccc2OCCn2c(C)nc3cnc(N4CCN(C)CC4)cc3c2=O)c2scc(C(=O)O)c2n1` [compound 810], for which the IC50 under setting [1] is under 50 nM. Consider `Cc1nc2cc(C(F)(F)F)cc(C#N)c2c(=O)n1CCOc1ccc(Cl)cc1-c1ccnc2c(C(=O)O)coc12` [compound 325], for which the IC50 under setting [1] fell in the range of 50 to 1000 nM and the IC50 under setting [2] was 52 nM. On to `Cc1nc2cc(C(F)(F)F)c(N3CCN(C4COC4)CC3)c(C#N)c2c(=O)n1CCOc1ccc(Cl)cc1-c1ccnc2c(C(=O)O)csc12` [compound 1241], for which the IC50 by setting is: under setting [1], under 50 nM; under setting [3], 17.3 nM. For `N#Cc1ccc(C#N)c2c(=O)n(CCOc3ccc(Cl)cc3-c3ccnc4c(C(=O)O)csc34)c(C(F)F)nc12` [compound 1943], under setting [3], the IC50 is 42.4 nM. Same read-out and setting: the result for `Cc1nc2cnc(N(C)C3CCN(CC(F)(F)C(F)F)CC3)c(C#N)c2c(=O)n1CC#Cc1ccc(Cl)cc1-c1ccnc2c(C(=O)NS(C)(=O)=O)csc12` [compound 1703] reads 6 nM.

For the compound `Cc1cc(-c2cc(Cl)ccc2OCCn2c(C)nc3cc(C(F)(F)F)c(-c4ccns4)c(C#N)c3c2=O)c2scc(C(=O)O)c2n1` [compound 348], the IC50 is under 50 nM under setting [1] and 15.4 nM under setting [2]. With `Cc1nc2cnc(N3CCN(C(C)(C)CCC(F)(F)F)CC3)c(C#N)c2c(=O)n1CCOc1ccc(Cl)cc1-c1ccnc2c(C(=O)O)csc12` [compound 1400], the IC50 under setting [3] was 27.8 nM.

On to `Cc1nc2c(N(C)C3CC4CCC(C3)N4C)ncc(C#N)c2c(=O)n1CCOc1ccc(Cl)cc1-c1ccnc2c(C(=O)O)csc12` (stereo not drawn) [compound 863], for which the IC50 reads like this: under setting [1], under 50 nM; under setting [2], 45.5 nM. For `Cc1nc2ccc(CCN(C)C)c(C#N)c2c(=O)n1CCOc1ccc(Cl)cc1-c1ccc(C(F)F)c2c(C(=O)O)csc12` [compound 577], in that order: under 50 nM and 39.4 nM.

As for `Cc1ccc2nc(C)n(CCOc3ccc(Cl)cc3-c3ccnc4c(C(=O)O)csc34)c(=O)c2c1C#N` [compound 572], the IC50 was under 50 nM under setting [1] and 30.6 nM under setting [2].

`Cc1nc2cnc(N(C)C3CCN(CC(F)(F)F)CC3)c(C#N)c2c(=O)n1CC#Cc1ccc(Cl)cc1-c1ccnc2c(C(=O)NS(=O)(=O)CC(F)(F)F)csc12` [compound 1593]: the IC50 under setting [3] is 61.6 nM. On to `Cc1nc2cc(C(F)(F)F)cc(C#N)c2c(=O)n1CCOc1ccccc1-c1ccnc2c(C(=O)O)csc12` [compound 227], for which the IC50 by setting is: under setting [1], 50 to 1000 nM; under setting [2], 507 nM.

In the case of `COC(=O)c1sc2cc(-c3cc(Cl)ccc3OCCn3c(C)nc4cc(C(F)(F)F)cc(C#N)c4c3=O)cnc2c1O` [compound 664], the IC50 is 50 to 1000 nM under setting [1] and 153 nM under setting [2]. Taken in the same sequence, the figures for `Cc1cc(-c2cc(Cl)ccc2OCCn2c(C)nc3cc(C(F)(F)F)c(C4CC4)c(C#N)c3c2=O)c2scc(C(=O)O)c2n1` [compound 1049] were under 50 nM and 9.35 nM. On to `Cc1nc2cc(F)c(C(F)F)c(C#N)c2c(=O)n1CCOc1ccc(Cl)cc1-c1ccnc2c(C(=O)O)csc12` [compound 230], for which the IC50 reads like this: under setting [1], under 50 nM; under setting [2], 14.9 nM. For `Cc1ccc(-c2cc(Cl)ccc2OCCn2c(C)nc3c(C#N)nc(-c4cccnc4)c(C)c3c2=O)c2scc(C(=O)O)c12` [compound 729], in that order: 50 to 1000 nM and 92.5 nM. Consider `Cc1nc2cc(C(F)(F)F)cc(C#N)c2c(=O)n1CCOc1ccc(Cl)cc1-c1csc2c(C(=O)O)csc12` [compound 203], for which the IC50 runs as follows: under setting [1], 50 to 1000 nM; under setting [2], 80.6 nM. Regarding `Cc1nc2cnc(N(C)C3CCN(CC(C)(F)F)CC3)c(C#N)c2c(=O)n1CC#Cc1ccc(Cl)cc1-c1ccnc2c(C(=O)NS(=O)(=O)CC(F)(F)F)csc12` [compound 1595], the IC50 under setting [3] was 54.8 nM.

In the case of `Cc1nc2cnc(N(C)C3CCN(C4CC(F)(F)C4)CC3)c(C#N)c2c(=O)n1CC#Cc1ccc(Cl)cc1-c1ccnc2c(C(=O)NS(=O)(=O)C(C)(C)C)csc12` [compound 1812], under setting [3], the IC50 is 18.4 nM.

Turning to `Cc1nc2cnc(N(C)C3CCN(CC(F)(F)F)CC3)c(C#N)c2c(=O)n1CC#Cc1ccc(Cl)cc1-c1ccnc2c(C(=O)NS(=O)(=O)C3CC(F)(F)C3)csc12` [compound 1677], under setting [3], the IC50 is 12.9 nM.

As to `Cc1sc2c(-c3cc(Cl)ccc3OCCn3c(C)nc4cnc(N5CCN(C)CC5)c(C#N)c4c3=O)ccnc2c1C(=O)O` [compound 1282], under setting [3], the IC50 was 38.2 nM.

In the case of `Cc1cc(-c2cc(Cl)ccc2OCCn2c(C)nc3cc(C(F)F)c(-c4cc(F)cnc4C)c(C#N)c3c2=O)c2scc(C(=O)O)c2n1` [compound 438], the IC50 reads like this: under setting [1], under 50 nM; under setting [2], 9.16 nM. For `Cc1nc2cnc(N(C)C3CCN(CC4(C(F)(F)F)CCC4)CC3)c(C#N)c2c(=O)n1CC#Cc1ccc(Cl)cc1-c1ccnc2c(C(=O)O)csc12` [compound 1588], under setting [3], the IC50 was 26.4 nM.

`COc1sc2c(-c3cc(Cl)ccc3OCCn3c(C)nc4cnc(C5CC5)c(C#N)c4c3=O)ccnc2c1C(=O)O` [compound 772]: the IC50 is under 50 nM under setting [1] and 14.1 nM under setting [2]. Taken in the same sequence, the figures for `Cc1nc2ccccc2c(=O)n1CCOc1ccc(Cl)cc1-c1cccc(C(=O)O)c1` [compound 72] were over 1000 nM and 3100 nM. `Cc1cc(-c2cc(Cl)ccc2OCCn2c(C)nc3cc(CCN(C)C)c(OC(F)F)c(C#N)c3c2=O)c2scc(C(=O)O)c2n1` [compound 607]: the IC50 runs as follows: under setting [1], under 50 nM; under setting [2], 5.5 nM. `Cc1ncc(F)cc1-c1c(CN(C)C)cc2nc(C)n(CCOc3ccc(Cl)cc3-c3ccnc4c(C(=O)O)csc34)c(=O)c2c1C#N` [compound 1267]: the IC50 under setting [3] was over 1000 nM. Regarding `CCc1sc2c(-c3cc(Cl)ccc3OCCn3c(C)nc4cc(C(F)(F)F)cc(C#N)c4c3=O)ccnc2c1C(=O)O` [compound 591], the IC50 runs as follows: under setting [1], under 50 nM; under setting [2], 44.9 nM. For `Cc1nc2cc(Cl)c(S(C)(=O)=O)c(C#N)c2c(=O)n1CCOc1ccc(Cl)cc1-c1ccnc2c(C(=O)O)csc12` [compound 493], in that order: 50 to 1000 nM and 94.2 nM. Take `Cc1cc(-c2ncc3nc(C)n(CCOc4ccc(Cl)cc4-c4cc(C)nc5c(C(=O)O)csc45)c(=O)c3c2C#N)cc(C)n1` [compound 873]: the IC50 is under 50 nM under setting [1] and 15.7 nM under setting [2]. Regarding `Cc1nc2cnc(N(C)C3CCN(CC(F)(F)F)CC3)c(C#N)c2c(=O)n1CC#Cc1ccc(Cl)cc1-c1ccnc2c(C(=O)NS(=O)(=O)C(C)C)csc12` [compound 1538], under setting [3], the IC50 is 14.5 nM. `COC(=O)c1csc2c(-c3cc(Cl)ccc3OCCn3c(C)nc4cc(C(F)(F)F)c(Cl)c(C#N)c4c3=O)ccnc12` [compound 1905]: the IC50 under setting [3] is 881 nM. On the same count and under the same terms, the value for `Cc1nc2cnc(N(C)C3CCN([C@H]4C[C@@H](OC(F)(F)F)C4)CC3)c(C#N)c2c(=O)n1CC#Cc1ccc(Cl)cc1-c1ccnc2c(C(=O)NS(=O)(=O)C3COC3)csc12` [compound 1610] was 6.02 nM. As for `Cc1nc2c(Cl)cc(Cl)c(C#N)c2c(=O)n1CCOc1ccc(Cl)cc1-c1ccnc2c(C(=O)O)csc12` [compound 209], the IC50 was under 50 nM under setting [1] and 47 nM under setting [2]. Turning to `C#Cc1cc2nccc(-c3cc(Cl)ccc3OCCn3c(C)nc4cc(C(F)(F)F)c(N5CCN(C)CC5)c(C#N)c4c3=O)c2s1` [compound 1244], the IC50 by setting is: under setting [1], under 50 nM; under setting [3], 19.4 nM. Take `Cc1nc2cc(C(F)(F)F)cc(C#N)c2c(=O)n1CCOc1ccc(Cl)cc1-c1ccnc2c(C(=O)O)c(C(F)(F)F)sc12` [compound 666]: the IC50 by setting is: under setting [1], 50 to 1000 nM; under setting [2], 268 nM.

Turning to `Cc1cc(-c2cc(Cl)ccc2OCCn2c(C)nc3cc(F)c(F)c(C#N)c3c2=O)c2scc(C(=O)NS(C)(=O)=O)c2n1` [compound 567], the IC50 under setting [1] was under 50 nM and the IC50 under setting [2] was 11.7 nM. Taken in the same sequence, the figures for `Cc1nc2cc(C(F)(F)F)cc(C#N)c2c(=O)n1CCOc1ccc(Cl)cc1-c1ccnc2c(C(=O)O)csc12` [Compound 272] were under 50 nM and 22.9 nM. Taken in the same sequence, the figures for `Cc1cc(-c2cc(Cl)ccc2OCCn2c(C)nc3cnc(Oc4ccccc4)c(C#N)c3c2=O)c2scc(C(=O)O)c2n1` [compound 1038] were under 50 nM and 38.9 nM. For the compound `Cc1cc(-c2cc(Cl)ccc2OCCn2c(C)nc3c(C)nc(-c4cccc(Cl)c4)c(C#N)c3c2=O)c2scc(C(=O)O)c2n1` [compound 481], the IC50 is, setting by setting: under setting [1], under 50 nM; under setting [2], 10.5 nM.

As for `Cc1ccc(C#N)c2c(=O)n(CCOc3ccc(Cl)cc3-c3ccnc4c(C(=O)O)csc34)c(C)nc12` [compound 574], the IC50 under setting [1] was 50 to 1000 nM and the IC50 under setting [2] is 57.5 nM.
